Source: US11826430B2, “Anti-cancer nuclear hormone receptor-targeting compounds” (Nuvation Bio Inc., priority 2019, dated 2023)
pIC50, pKi: −log10 of the molar value.

Legend:
Human recombinant PARP1 = Human recombinant PARP1 (Homo sapiens (Human), UniProt P09874); assay: RBC HotSpot PARP1 radioisotope-based filter binding assay; conditions: read-out: PARP1 IC50; 2.5 nM PARP1, histone H4, 10 μM 32P-NAD+
Method: (§3) RBC HotSpot Poly(ADP-ribose) Polymerases 1 (PARP1) and Poly(ADP-ribose) Polymerases 2 (PARP2) Assays: The assay was conducted at Reaction Biology Corporation (RBC; Malvern, PA). The assay principle is radioisotope-based filter binding assay where incorporation of radioisotope-labeled NAD^+ into the substrate captured on filter is detected after washout free NAD^+. Data were analyzed using Excel and GraphPad Prism software for IC50 curve fits. Each assay was conducted with PJ34 as a positive control. PARP1 assay: Human recombinant PARP1 at a final concentration of 2.5 nM was combined with histone H4 (20 μM) and test articles at various concentrations in reaction buffer (50 mM Tris-HCL, pH 8.0, 50 mM NaCl, 10 mM MgCl2, 1 mM DTT, 1% DMSO, and 20 μg/mL activated DNA). The solution was inoculated for 20 min at room temperature and the reaction initiated by adding [adenylate-^32P]-Nicotinamide Adenine Dinucleotide, ^32P-NAD^+ at a final concentration of 10 μM. After incubation for 2 hrs at room temperature, the reaction mixture was filtered and washed with 0.75% phosphoric acid for radioactivity detection. • ii. PARP2 assay: Human recombinant PARP2 at a final concentration of 2.5 nM was combined with histone H3 (20 μM) and test articles at various concentrations in reaction buffer (50 mM Tris-HCL, pH 8.0, 50 mM NaCl, 10 mM MgCl2, 1 mM DTT, 1% DMSO, and 20 μg/mL activated DNA). The solution was inoculated for 20 min at room temperature and the reaction was initiated by adding [adenylate-^32P]-Nicotinamide Adenine Dinucleotide, ^32P-NAD^+ at a final concentration of 10 μM. After incubation for 2 hrs at room temperature, the reaction mixture was filtered and washed with 0.75% phosphoric acid for radioactivity detection. b. AR binding assay: AR in LNCaP cytosol was used for determining the binding affinity of test articles and the reference compound—progesterone (Sigma, Cat: E2785, St. Louis, MO). IC50s were determined using 8 concentrations/compound. Cytosol was plated at 200 μg/well (100 μL) into a 96-well conical polypropylene plate (Agilent, Cat: 5042-1385, Santa Clara, CA) and mixed with 3 μL of test compound. After adding 100 μL of ^3H-methyltrienolone (PerkinElmer, Cat: NET590250UC, San Jose, CA), the plate was sealed and shaken at 300 rpm at 4° C. for 24 hours. Post incubation, 100 μL of radioligand adsorption buffer containing 10 mM Tris-HCl, pH 7.4; 1.5 mM EDTA; 1 mM DTT; 0.25% charcoal; 0.0025% dextran was added to individual well. Plate was shaken for 15 min at 4° C. followed by centrifugation at 3000 rpm for 30 min at 4° C. 150 μL of supernatant was transferred into scint-tube (PerkinElmer, Cat: 6000192) and mixed with 2 mL of Ultima Gold Cocktail (PerkinElmer, Cat: 6013329). Radioactivity was counted using a TriCarb 2910 TR scintillation counter (PerkinElmer). Inhibition of the radioactivity by test articles were calculated using the equation below: % Inhibition=(1−(Assay well-Average_LC)/(Average_HC-Average_LC))×100%. IC50 values were calculated and graphed using the model “log(inhibitor) vs. response—Variable slope” included in GraphPad Prism 5 (San Diego, CA). […] Ki=IC50/(1+[L]/Kd) c.

ER Alpha-LBD (GST) = ER Alpha-LBD (GST) (Homo sapiens (Human), UniProt P03372); assay: LanthaScreen TR-FRET ER Alpha Competitive Binding Assay; conditions: Fluormone ES2 Green tracer displacement; for pIC50: read-out: ERα IC50
Method: e. Additional cell proliferation assays: Other cancer cell lines are tested in a cell proliferation assay. For example, LnCaP, PC-3, MCF-7, HCC1428, BT474, HCT-116, SK-OV-3 or OVCAR3 cancer cells are tested. Cells are cultured in medium recommended by the supplier (e.g., ATCC or JCRB Cell Bank), at 37° C. in a 5% CO2 environment. For the proliferation assay, cells are plated in the growth medium in 96 well plates. Seeding density is adjusted according to the cell type. 24 hr later, cells are treated, in triplicate or quadruplicate, with test articles prepared in a range of concentrations by series dilution of DMSO stock solutions in growth medium, and typically incubated for three to seven days, with test article-containing medium replaced after three or four days. The number of viable cells is measured using CellTiter Glo assay (CTG, Promega, Madison, WI) or similar. Cell viability data are plotted using GraphPad Prism (GraphPad Software, Inc., San Diego, CA). In addition, a nonlinear regression model with a sigmoidal dose response and variable slope within GraphPad Prism is used to calculate the IC50 value of individual test articles. Similarly, HEK-293 and HeLa calls can also be tested by methods known in the art. f. Nuclear translocation: LNCaP cells are plated on coverslips in 24 well plates in growth medium. Twenty-four hours after plating, medium is changed to RPMI+1% csFBS and the cells are maintained in this medium for two days. Medium is replaced again and the cells are treated. Cells are fixed 4 hours after treatment and the AR immunostained using AR N20 antibody (Santa Cruz Biotechnology, Santa Cruz, CA). Nucleus is stained with DAPI. Cells are imaged with a confocal microscope. g. ER binding assay: ERα binding was assessed by the LanthaScreen® TR-FRET ER Alpha Competitive Binding Assay at Thermo Fisher. In this assay, a terbium-labeled anti-GST antibody was used to indirectly label GST-tagged ER Alpha-ligand binding domain (LBD) by binding to its GST tag. Competitive binding to the ER Alpha-LBD (GST) was detected by a test compound's ability to displace a fluorescent ligand (Fluormone™ ES2 Green tracer) from the ER Alpha-LBD (GST), which results in a loss of FRET signal between the Tb-anti-GST antibody and the tracer. When running the assay, Fluormone™ ES2 Green tracer was added to ligand test compounds or solvent controls followed by addition of a mixture of the ER Alpha-LBD (GST) and terbium anti-GST antibody. After an incubation period at room temperature, the TR-FRET ratio of 520:495 emissions were calculated and used to determine the IC50 from a dose response curve of the compound. ER and PR functional assays: COS cells are transfected with 25 ng rat progesterone receptor (PR) and 250 ng GRE-LUC or 50 ng human estrogen receptor a (ER) and 250 ng ERE-LUC. Cells are also transfected with 10 ng CMV-renilla LUC in OptiMEM medium using lipofectamine transfection reagent. Twenty-four hours after transfection medium is changed to DME+5% csFBS w/o and treated with compounds in the presence of 0.1 nM progesterone for PR and estradiol for ER. Twenty four hours after treatment, cells are harvested and luciferase assay is performed using dual luciferase assay kit. The firefly values are normalized to renilla luciferase values and represented as a ratio. i. Evaluation of test compound in mouse xenograft model: To examine the in vivo antitumor activity of test compound, tumor growth experiments are performed in a cell line xenograft model. Male NOD SCID Gamma (NSG) mice are housed as five animals per cage and are allowed free access to water and commercial rodent chow. 22RV1 cells (grown in RPMI+10% FBS) mixed with 50% matrigel basement membrane are implanted subcutaneously in castrated mice. Alternatively, an antiandrogen resistant cell line other than 22RV1, such as MR49F or VCaP, is used. Once the tumors reach 200-500 mm^3, the animals are randomized and treated intraperitoneally with vehicle (DMSO:PEG-300:corn oil 10:30:60 ratio) or test compound. […]

Human recombinant PARP2 = Human recombinant PARP2 (Homo sapiens (Human), UniProt Q9UGN5); assay: RBC HotSpot PARP2 radioisotope-based filter binding assay; conditions: read-out: PARP2 IC50; 2.5 nM PARP2, histone H3, 10 μM 32P-NAD+
Method: as §3

HT-29 cells = assay: Cell proliferation assay, CellTiter Glo; assay type: cell-based; conditions: Homo sapiens, HT-29, 72 h; cell growth inhibition, three days of treatment
Method: (§1) a. […] IC50s were determined using 8 concentrations/compound. […] Ki=IC50/(1+[L]/Kd) c.
(§2) Cells were plated at varying density in the respective growth medium in 96 well plates. 24 hr later, cells were treated, in triplicate or quadruplicate, with test articles prepared in a range of concentrations by series dilution of DMSO stock solutions in growth medium and incubated for three to seven days. The number of viable 22RV1 and HT-29 cells was measured using CellTiter Glo assay (CTG, Promega, Madison, WI) after three days of treatment. Cell viability data were plotted using GraphPad Prism (GraphPad Software, Inc., San Diego, CA). In addition, a nonlinear regression model with a sigmoidal dose response and variable slope within GraphPad Prism was used to calculate the IC50 value of individual test articles.

22RV1 cells = assay: Cell proliferation assay, CellTiter Glo; assay type: cell-based; conditions: Homo sapiens, 22Rv1, 72 h; cell growth inhibition, three days of treatment
Method: as §1, §2

AR in LNCaP cytosol = AR in LNCaP cytosol (Homo sapiens (Human), UniProt P10275, T878A); assay: AR binding assay (3H-methyltrienolone displacement); conditions: read-out: AR IC50, 4° C. for 24 hours
Sequence of AR in LNCaP cytosol (P10275 whole entry T878A): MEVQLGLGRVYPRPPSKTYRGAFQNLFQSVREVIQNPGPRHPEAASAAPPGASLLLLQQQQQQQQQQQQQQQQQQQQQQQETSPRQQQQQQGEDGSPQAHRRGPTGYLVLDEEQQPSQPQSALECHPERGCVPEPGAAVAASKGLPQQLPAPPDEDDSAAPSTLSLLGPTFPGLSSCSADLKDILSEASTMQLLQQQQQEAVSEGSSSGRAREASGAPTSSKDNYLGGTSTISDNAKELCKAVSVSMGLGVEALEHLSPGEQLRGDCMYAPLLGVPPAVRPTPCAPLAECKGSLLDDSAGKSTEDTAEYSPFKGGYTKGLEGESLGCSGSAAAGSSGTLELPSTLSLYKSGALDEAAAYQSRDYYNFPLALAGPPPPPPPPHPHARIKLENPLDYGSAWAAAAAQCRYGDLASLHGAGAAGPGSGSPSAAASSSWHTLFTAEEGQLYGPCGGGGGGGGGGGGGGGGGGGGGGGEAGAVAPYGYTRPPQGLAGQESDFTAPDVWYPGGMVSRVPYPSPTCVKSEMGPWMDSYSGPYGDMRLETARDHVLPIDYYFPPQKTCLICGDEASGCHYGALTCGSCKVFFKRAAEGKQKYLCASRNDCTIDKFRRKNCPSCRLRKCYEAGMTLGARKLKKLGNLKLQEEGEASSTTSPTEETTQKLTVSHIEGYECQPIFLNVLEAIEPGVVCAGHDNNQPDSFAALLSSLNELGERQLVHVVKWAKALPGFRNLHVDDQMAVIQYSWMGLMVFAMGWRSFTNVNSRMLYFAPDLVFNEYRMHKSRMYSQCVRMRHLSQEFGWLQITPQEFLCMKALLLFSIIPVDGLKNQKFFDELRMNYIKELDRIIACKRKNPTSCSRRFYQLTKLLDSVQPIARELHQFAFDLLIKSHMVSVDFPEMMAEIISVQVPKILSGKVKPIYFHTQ
Method: as §3

Sequence of Human recombinant PARP1 (P09874 whole entry, the tested form may be a part): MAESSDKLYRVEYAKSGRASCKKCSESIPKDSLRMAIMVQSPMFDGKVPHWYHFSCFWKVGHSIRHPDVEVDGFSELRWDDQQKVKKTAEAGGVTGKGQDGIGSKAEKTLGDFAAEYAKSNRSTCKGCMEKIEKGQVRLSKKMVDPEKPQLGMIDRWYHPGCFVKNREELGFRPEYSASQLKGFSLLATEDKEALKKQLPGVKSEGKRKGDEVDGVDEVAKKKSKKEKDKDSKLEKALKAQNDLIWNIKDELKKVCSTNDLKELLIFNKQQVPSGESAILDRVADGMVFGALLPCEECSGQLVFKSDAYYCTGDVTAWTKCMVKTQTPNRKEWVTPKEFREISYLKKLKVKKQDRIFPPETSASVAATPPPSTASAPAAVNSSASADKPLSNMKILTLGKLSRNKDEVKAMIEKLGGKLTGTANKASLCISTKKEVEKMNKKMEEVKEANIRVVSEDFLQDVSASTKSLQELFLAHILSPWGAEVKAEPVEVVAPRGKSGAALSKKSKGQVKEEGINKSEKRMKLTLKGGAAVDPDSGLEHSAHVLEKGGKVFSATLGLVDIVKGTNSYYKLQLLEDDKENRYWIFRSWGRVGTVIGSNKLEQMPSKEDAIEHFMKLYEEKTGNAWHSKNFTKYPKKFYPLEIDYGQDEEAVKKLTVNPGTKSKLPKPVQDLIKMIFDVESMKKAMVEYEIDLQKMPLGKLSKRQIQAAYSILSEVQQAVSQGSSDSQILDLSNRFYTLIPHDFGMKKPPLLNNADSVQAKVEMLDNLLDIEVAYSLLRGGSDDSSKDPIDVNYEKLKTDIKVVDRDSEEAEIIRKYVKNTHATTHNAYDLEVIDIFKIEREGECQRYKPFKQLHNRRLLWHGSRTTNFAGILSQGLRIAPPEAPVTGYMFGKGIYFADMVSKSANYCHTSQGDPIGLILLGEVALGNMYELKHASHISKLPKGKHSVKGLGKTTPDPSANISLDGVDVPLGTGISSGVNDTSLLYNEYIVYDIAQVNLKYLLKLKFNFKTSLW
Sequence of Human recombinant PARP2 (Q9UGN5 whole entry): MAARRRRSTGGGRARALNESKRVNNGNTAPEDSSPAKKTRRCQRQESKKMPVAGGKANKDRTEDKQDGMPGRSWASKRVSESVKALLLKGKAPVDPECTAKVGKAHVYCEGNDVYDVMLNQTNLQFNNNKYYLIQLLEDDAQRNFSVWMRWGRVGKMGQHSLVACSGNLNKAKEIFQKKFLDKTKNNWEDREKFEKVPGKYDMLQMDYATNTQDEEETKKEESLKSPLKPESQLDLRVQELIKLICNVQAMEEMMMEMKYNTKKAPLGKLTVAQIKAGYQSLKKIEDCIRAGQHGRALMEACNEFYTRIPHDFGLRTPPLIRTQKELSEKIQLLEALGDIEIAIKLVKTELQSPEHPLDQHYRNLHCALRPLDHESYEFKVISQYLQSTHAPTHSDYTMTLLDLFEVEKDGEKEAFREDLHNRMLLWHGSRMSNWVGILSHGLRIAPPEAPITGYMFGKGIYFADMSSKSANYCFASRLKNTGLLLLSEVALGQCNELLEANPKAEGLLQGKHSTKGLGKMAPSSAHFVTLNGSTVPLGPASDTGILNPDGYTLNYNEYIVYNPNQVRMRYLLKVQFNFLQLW
Sequence of ER Alpha-LBD (GST) (P03372 311-547): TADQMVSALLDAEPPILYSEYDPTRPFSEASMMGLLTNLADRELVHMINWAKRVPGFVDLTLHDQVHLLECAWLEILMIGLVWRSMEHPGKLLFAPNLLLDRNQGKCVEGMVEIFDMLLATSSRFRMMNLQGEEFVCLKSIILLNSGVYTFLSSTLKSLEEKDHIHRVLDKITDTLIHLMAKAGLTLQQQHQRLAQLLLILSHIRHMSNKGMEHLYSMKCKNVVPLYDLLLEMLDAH

Row | Compound | pIC50 (Human recombinant PARP1) | pIC50 (ER Alpha-LBD (GST)) | pKi (ER Alpha-LBD (GST); read-out: ERα Ki) | pIC50 (Human recombinant PARP2) | pIC50 (HT-29 cells) | pIC50 (22RV1 cells) | pIC50 (AR in LNCaP cytosol)
1 | CC/C(=C(/c1ccc(OCCCOCCN2CCN(C(=O)c3cc(Cc4n[nH]c(=O)c5ccccc45)ccc3F)CC2)cc1)c1ccc2[nH]ncc2c1)c1ccc(Cl)cc1F [Compound 2.54, (E)-4-(3-(4-(2-(3-(4-(2-(4-chloro-2-fluorophenyl)-1-(1H-indazol-5-yl)but-1-enyl)phenoxy)propoxy)ethyl)piperazine-1-carbonyl)-4-fluorobenzyl)phthalazin-1(2H)-one] | 7.40 | 7.19 | 7.46 | 8.30 |  |  | 
2 | C[C@H]1Cc2c([nH]c3ccccc23)[C@H](c2c(F)cc(OCCN3CCN(C(=O)c4cc(Cc5n[nH]c(=O)c6ccccc56)ccc4F)CC3)cc2F)N1CC(C)(C)F (stereo in doubt) [Compound 2.51, 4-(3-(4-(2-(3,5-difluoro-4-((1S,3S)-2-(2-fluoro-2-methylpropyl)-3-methyl-2,3,4,9-tetrahydro-1H-pyrido[3,4-b]indol-1-yl)phenoxy)ethyl)piperazine-1-carbonyl)-4-fluorobenzyl)phthalazin-1(2H)-one] | 7.55 | 7.36 |  | 8.40 |  |  | 
3 | Cn1ncnc1[C@H]1c2n[nH]c(=O)c3cc(F)cc(c23)N[C@@H]1c1ccc(N2C(=S)N(c3ccc(C#N)c(C(F)(F)F)c3)C(=O)C2(C)C)cc1 [Compound 1.2a, 4-(3-(4-((8S,9R)-5-fluoro-9-(1-methyl-1H-1,2,4-triazol-5-yl)-3-oxo-3,7,8,9-tetrahydro-2H-pyrido[4,3,2-de]phthalazin-8-yl)phenyl)-4,4-dimethyl-5-oxo-2-thioxoimidazolidin-1-yl)-2-(trifluoromethyl)benzonitrile] |  |  |  | 9.52 | < 5.00 | < 5.00 | < 5.43
4 | Cn1ncnc1[C@@H]1c2n[nH]c(=O)c3cc(F)cc(c23)N[C@H]1c1ccc(OC[C@](C)(O)C(=O)Nc2ccc(C#N)c(C(F)(F)F)c2)cc1 [Compound 1.1b, (S)—N-(4-cyano-3-(trifluoromethyl)phenyl)-3-(4-((8R,9S)-5-fluoro-9-(1-methyl-1H-1,2,4-triazol-5-yl)-3-oxo-3,7,8,9-tetrahydro-2H-pyrido[4,3,2-de]phthalazin-8-yl)phenoxy)-2-hydroxy-2-methylpropanamide] | 7.22 |  |  | 7.52 | < 5.00 | < 5.00 | 
5 | C[C@@H]1Cc2c([nH]c3ccccc23)[C@@H](c2c(F)cc(OCCCCCC(=O)N3CCN(C(=O)c4cc(Cc5n[nH]c(=O)c6ccccc56)ccc4F)CC3)cc2F)N1CC(C)(C)F [Compound 2.50, 4-(3-(4-(6-(3,5-difluoro-4-((1R,3R)-2-(2-fluoro-2-methylpropyl)-3-methyl-2,3,4,9-tetrahydro-1H-pyrido[3,4-b]indol-1-yl)phenoxy)hexanoyl)piperazine-1-carbonyl)-4-fluorobenzyl)phthalazin-1(2H)-one] | 7.68 | 8.24 |  | 8.52 |  |  | 
6 | Cn1ncnc1[C@H]1c2n[nH]c(=O)c3cc(F)cc(c23)N[C@@H]1c1ccc(OC[C@](C)(O)C(=O)Nc2ccc(C#N)c(C(F)(F)F)c2)cc1 [Compound 1.1a, (S)—N-(4-cyano-3-(trifluoromethyl)phenyl)-3-(4-((8S,9R)-5-fluoro-9-(1-methyl-1H-1,2,4-triazol-5-yl)-3-oxo-3,7,8,9-tetrahydro-2H-pyrido[4,3,2-de]phthalazin-8-yl)phenoxy)-2-hydroxy-2-methylpropanamide] | < 6.00 |  |  | < 6.00 | < 5.00 | < 5.00 | 
7 | CC1(C)C(=O)N(c2ccc(C#N)c(C(F)(F)F)c2)C(=S)N1C1CCN(C(=O)c2cc(Cc3n[nH]c(=O)c4ccccc34)ccc2F)CC1 [Compound 1.3, 4-(3-(1-(2-fluoro-5-((4-oxo-3,4-dihydrophthalazin-1-yl)methyl)benzoyl)piperidin-4-yl)-4,4-dimethyl-5-oxo-2-thioxoimidazolidin-1-yl)-2-(trifluoromethyl)benzonitrile] | 8.52 |  |  | 9.22 |  |  | 
8 | Cn1ncnc1[C@@H]1c2n[nH]c(=O)c3cc(F)cc(c23)N[C@H]1c1ccc(N2C(=S)N(c3ccc(C#N)c(C(F)(F)F)c3)C(=O)C2(C)C)cc1 [Compound 1.2b, 4-(3-(4-((8R,9S)-5-fluoro-9-(1-methyl-1H-1,2,4-triazol-5-yl)-3-oxo-3,7,8,9-tetrahydro-2H-pyrido[4,3,2-de]phthalazin-8-yl)phenyl)-4,4-dimethyl-5-oxo-2-thioxoimidazolidin-1-yl)-2-(trifluoromethyl)benzonitrile] |  |  |  | 7.70 | < 5.00 | < 5.00 | 
9 | CC/C(=C(/c1ccc(OCCCCCC(=O)N2CCN(C(=O)c3cc(Cc4n[nH]c(=O)c5ccccc45)ccc3F)CC2)cc1)c1ccc2[nH]ncc2c1)c1ccc(Cl)cc1F [Compound 2.49, (E)-4-(3-(4-(6-(4-(2-(4-chloro-2-fluorophenyl)-1-(1H-indazol-5-yl)but-1-en-1-yl)phenoxy)hexanoyl)piperazine-1-carbonyl)-4-fluorobenzyl)phthalazin-1(2H)-one] | 6.69 | 8.36 |  | 8.05 |  |  | 
10 | CC/C(=C(/c1ccc(OCCCCCCN2CCN(C(=O)c3cc(Cc4n[nH]c(=O)c5ccccc45)ccc3F)CC2)cc1)c1ccc2[nH]ncc2c1)c1ccc(Cl)cc1F [Compound 2.52, (E)-4-(3-(4-(6-(4-(2-(4-chloro-2-fluorophenyl)-1-(1H-indazol-5-yl)but-1-enyl)phenoxy)hexyl)piperazine-1-carbonyl)-4-fluorobenzyl)phthalazin-1(2H)-one] | 6.73 | 8.28 |  | 7.54 |  |  | 
11 | CC/C(=C(/c1ccc(OCCCOCC(=O)N2CCN(C(=O)c3cc(Cc4n[nH]c(=O)c5ccccc45)ccc3F)CC2)cc1)c1ccc2[nH]ncc2c1)c1ccc(Cl)cc1F [Compound 2.53, (E)-4-(3-(4-(2-(3-(4-(2-(4-chloro-2-fluorophenyl)-1-(1H-indazol-5-yl)but-1-enyl)phenoxy)propoxy)acetyl)piperazine-1-carbonyl)-4-fluorobenzyl)phthalazin-1(2H)-one] | 7.02 | 8.47 |  | 8.22 |  |  | 
